# Results reported in patent US8022239B2, “Mechanism-based inactivators of autotaxin” (The University of Memphis Research Foundation, priority 2008, dated 2011).
# Target: T1, autotaxin (ATX) (Homo sapiens, UniProt Q13822)
# T1 construct: concentrated conditioned serum-free medium (CCM) from MDA MB-435 cells as the source of ATX; endogenous in cells; host or cells: MDA-MB-435 cells (serum-free conditioned medium, concentrated ~10 fold)
# Assay: Autotaxin inactivation analysis: ATX-mediated hydrolysis of FS-3 (fluorescence), concentrated conditioned medium from MDA MB-435 cells as ATX source
# Format: biochemical
# Conditions: FS-3 substrate
# Description: The test protocol was as follows:
# MDA-MB-435 cells were cultured at 37° C. and 5% CO2 in Dulbecco's Modified Eagle Medium (DMEM) (MediaTech, Herndon, Va.) containing 5% fetal bovine serum (Hyclone, Logan, Utah), 100 U/ml penicillin, 100 μg/ml streptomycin (Hyclone, Logan, Utah) and 292 μg/ml L-glutamine (Hyclone, Logan, Utah). Cells were grown to ˜80% confluence at which time the cells were washed twice with sterile phosphate buffered saline prior to the addition of serum free DMEM containing L-glutamine. Conditioned medium was collected after 24-30 hours, supplemented with 20% ethylene glycol and was clarified by centrifugation at 3000×g and 4° C. for 10 min. The media was concentrated ˜10 fold and buffer exchanged into Tris (50 mM, pH 7.4) containing 20% ethylene glycol using an Amicon 8050 cell fitted with a PM30 filter (MILLIPORE®, Billerica, Mass.). Aliquots of concentrated conditioned media were stored at 4° C. until needed.
# ATX inhibition was assayed using FS-3 (Echelon Biosciences, Inc., Salt Lake City, Utah, USA) as a substrate and ˜10 times concentrated conditioned serum-free medium (CCM) from MDA MB-435 cells as the source of ATX. Assays were performed in 96-well plates with CCM comprising one-third of the total volume and final FS-3 and charcoal-stripped fatty acid free BSA concentrations of 1 and 30 μM in assay buffer (1 mM each CaCl2 and MgCl2, 5 mM KCl, 140 mM NaCl, 50 mM Tris pH 8.0). Fluorescence was read at 5 minute intervals by a Synergy2 system (BioTek, Winooski, Vt.) with excitation and emission wavelengths of 485 and 538 nm, respectively. […] Fluorescence readings were normalized to vehicle control after subtraction of fluorescence in the absence of CCM. Data are shown as the mean±S.D. of at least three wells.
# [1] = 3 uM, time 0 hour, low % response = effective inhibition
SMILES,"Fluorescence (% Response) (30 uM, time 0 hour) [%]","Fluorescence (% Response) (100 uM, time 0 hour) [%]",Fluorescence (% Response) [1] [%],"Fluorescence (% Response) (3 uM, time 1 hour) [%]","Fluorescence (% Response) (3 uM, time 3 hours) [%]","Fluorescence (% Response) (3 uM, time 6 hours) [%]","Fluorescence (% Response) (30 uM, time 1 hour) [%]","Fluorescence (% Response) (30 uM, time 3 hours) [%]","Fluorescence (% Response) (30 uM, time 6 hours) [%]"
"CCCCCCCCCCCCCCCCCCOP(=O)(O)Oc1ccc(C(F)F)cc1 [Example 1, (18:0)-p-difluorophosphodiester]",96.1,94.1,–,–,–,–,–,–,–
"CCCCCCCCCCCCCCCCCCOP(=O)(O)Oc1ccc(CF)cc1 [Example 2, (18:0)-p-monofluorophosphodiester]",57.3,–,83.3,47.9,28.1,25.0,35.4,9.4,−2.1
"CCCCCCCCCCCCCCCCOP(=O)(O)Oc1ccc(C(F)F)cc1 [Example 3, (16:0)-p-difluorophosphodiester]",71.9,–,94.8,60.4,44.8,34.4,37.5,19.0,–
"CCCCCCCCCCCCCCCCOP(=O)(O)Oc1ccc(CF)cc1 [Example 4, (16:0)-p-monofluorophosphodiester]",26.0,–,81.3,50.0,33.3,21.9,12.5,5.2,−2.1
"CCCCCCCCCCCCCCOP(=O)(O)Oc1ccc(C(F)F)cc1 [Example 5, (14:0)-p-difluorophosphodiester]",24.5,–,92.5,57.1,42.7,31.2,14.3,12.9,9.6
"CCCCCCCCCCCCCCOP(=O)(O)Oc1ccc(CF)cc1 [Example 6, (14:0)-p-monofluorophosphodiester]",48.9,–,95.9,61.9,45.7,32.7,31.3,25.0,18.5
"CCCCCCCCCCCCOP(=O)(O)Oc1ccc(C(F)F)cc1 [Example 7, (12:0)-p-difluorophosphodiester]",52.0,–,93.9,64.5,48.3,37.0,36.2,29.4,24.9
"CCCCCCCCCCCCOP(=O)(O)Oc1ccc(CF)cc1 [Example 8, (12:0)-p-monofluorophosphodiester]",89.1,–,99.4,70.0,52.2,40.6,63.0,48.4,37.7
"CCCCCCCCCCCCCCCCOP(=O)(O)Oc1ccccc1CF [Example 10, (16:0)-o-monofluorophosphodiester]",0.4,–,86.6,29.3,10.6,4.7,−16.8,−18.7,−17.0
